pIC50: −log10 of the molar value.
Molecular target: human Nav1.8 (Homo sapiens (Human), UniProt Q9Y5Y9)
Assay: Nav1.8 Qube® Assay (automated 384-well patch-clamp)
Assay type: cell-based
Conditions: human Nav1.8 channels stably expressed in HEK 293 cells
Excerpt: Qube® Assay Experimental Procedure

Chain of human Nav1.8 (Q9Y5Y9 whole entry): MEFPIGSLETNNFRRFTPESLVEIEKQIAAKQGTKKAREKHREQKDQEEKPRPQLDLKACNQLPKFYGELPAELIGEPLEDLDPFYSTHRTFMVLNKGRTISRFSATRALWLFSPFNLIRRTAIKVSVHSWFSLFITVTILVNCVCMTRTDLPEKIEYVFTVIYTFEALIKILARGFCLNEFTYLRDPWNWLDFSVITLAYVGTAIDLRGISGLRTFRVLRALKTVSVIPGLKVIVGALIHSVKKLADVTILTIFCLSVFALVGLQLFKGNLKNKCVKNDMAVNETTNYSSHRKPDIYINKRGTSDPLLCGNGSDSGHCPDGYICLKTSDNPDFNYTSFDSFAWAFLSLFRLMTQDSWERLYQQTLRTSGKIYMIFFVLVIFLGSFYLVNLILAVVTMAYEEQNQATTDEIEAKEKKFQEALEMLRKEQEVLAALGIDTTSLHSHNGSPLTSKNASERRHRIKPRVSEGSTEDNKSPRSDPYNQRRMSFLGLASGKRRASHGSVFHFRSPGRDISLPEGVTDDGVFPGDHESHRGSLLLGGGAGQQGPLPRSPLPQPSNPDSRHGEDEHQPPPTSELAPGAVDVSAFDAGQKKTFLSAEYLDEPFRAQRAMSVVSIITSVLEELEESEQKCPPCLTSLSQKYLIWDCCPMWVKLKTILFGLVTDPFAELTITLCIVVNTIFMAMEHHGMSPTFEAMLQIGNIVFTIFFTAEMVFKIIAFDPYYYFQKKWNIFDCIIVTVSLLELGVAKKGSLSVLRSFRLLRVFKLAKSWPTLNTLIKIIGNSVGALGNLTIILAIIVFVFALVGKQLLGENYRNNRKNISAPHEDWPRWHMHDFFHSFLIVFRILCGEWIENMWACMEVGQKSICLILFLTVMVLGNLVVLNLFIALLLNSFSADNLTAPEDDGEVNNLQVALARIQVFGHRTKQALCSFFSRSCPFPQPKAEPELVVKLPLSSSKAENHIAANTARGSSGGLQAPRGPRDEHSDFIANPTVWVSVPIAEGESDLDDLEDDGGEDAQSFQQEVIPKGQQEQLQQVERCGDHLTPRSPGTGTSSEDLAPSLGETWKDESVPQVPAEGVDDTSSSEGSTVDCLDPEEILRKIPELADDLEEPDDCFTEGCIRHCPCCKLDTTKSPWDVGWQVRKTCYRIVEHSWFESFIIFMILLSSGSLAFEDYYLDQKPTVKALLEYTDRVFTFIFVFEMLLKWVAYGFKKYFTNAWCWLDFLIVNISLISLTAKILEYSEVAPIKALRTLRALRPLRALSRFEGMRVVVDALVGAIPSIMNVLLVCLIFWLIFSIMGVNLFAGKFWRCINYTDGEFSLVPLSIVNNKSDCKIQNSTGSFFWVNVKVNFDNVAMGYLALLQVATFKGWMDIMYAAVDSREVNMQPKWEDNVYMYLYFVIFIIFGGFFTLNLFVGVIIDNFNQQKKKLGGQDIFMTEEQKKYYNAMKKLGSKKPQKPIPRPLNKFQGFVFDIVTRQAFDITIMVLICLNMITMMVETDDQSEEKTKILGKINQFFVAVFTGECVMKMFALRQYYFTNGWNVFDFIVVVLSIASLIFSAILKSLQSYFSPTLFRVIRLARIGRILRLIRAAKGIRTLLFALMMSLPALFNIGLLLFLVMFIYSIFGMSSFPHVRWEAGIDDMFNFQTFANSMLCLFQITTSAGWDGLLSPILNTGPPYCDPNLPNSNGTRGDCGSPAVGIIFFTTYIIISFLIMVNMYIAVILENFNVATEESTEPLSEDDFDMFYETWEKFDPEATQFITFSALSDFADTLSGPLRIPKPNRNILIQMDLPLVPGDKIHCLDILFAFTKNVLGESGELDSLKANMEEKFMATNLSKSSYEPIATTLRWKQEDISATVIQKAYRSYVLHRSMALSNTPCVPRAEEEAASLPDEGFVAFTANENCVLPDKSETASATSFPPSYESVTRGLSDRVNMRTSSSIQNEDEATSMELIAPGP

pIC50: 6.61
Structure (SMILES): O=C1NC[C@@H](C(=O)NC(Cc2ccc(Cl)cc2)c2ccc(OC(F)(F)F)cc2)O1 (stereo partly drawn) [Example 68, (5S)-N-(2-(4-chlorophenyl)-1-(4-(trifluoromethoxy)phenyl)ethyl)-2-oxooxazolidine-5-carboxamide]

— US12516046B2, “2-oxo-oxazolidine-5-carboxamides as NAV1.8 inhibitors” (Merck Sharp & Dohme LLC, priority 2020, dated 2026)
